From patent publication US12527785B2, “Renin-angiotensin-aldosterone system (RAAS) inhibitors in the treatment of pancreatic ductal carcinoma” (OCHSNER CLINIC FOUNDATION, priority 2023, dated 2026) come the findings set out here.

The subject of this assay is PANC-1 tumor orthotopic xenograft. The assay is described as follows: PANC-1 tumor orthotopic xenograft mouse model (BLI tumor burden, tumor weight). The class given is in vivo. To be noted: for Tumor weight / Tumor weight, mean: 100 mg/kg EMA401, DWK 8.5; for Tumor weight: Table 17A, control 0.9444; for Tumor weight lowered versus control: EMA401 (100 mg/kg); for BLI data, % of control / BLI data, mean: four weeks; for BLI data, mean: control 3.003. The text has this: Human PDCA cell line PANC-1 was transduced with pre-made lentiviral vectors encoding luciferase (firefly)/red fluorescent protein (RFP) to enable monitoring of the growth of primary tumor and metastasis. […] For in vivo experiments, Nonobese diabetic/severe combined immunodeficiencyNOD-SCID mice (Jackson Labs, Bar Harbor, ME, or inhouse breeding) were first brought under anesthesia with isoflurane (2.5% in 100% oxygen, 1 L/min) in an induction chamber and maintained under adequate anesthesia (isoflurane inhalation) while being laid on a warming pad throughout the surgical procedure. For tumor generation, 5×10^4 luciferase-tagged PANC-1 cells were co-inoculated with 3×10^5 lymph node stromal cell (LNSC) analog HK cells. The mice received a 0.75-1.2 cm long incision (on the left side of the body slightly medial to the splenic silhouette) to exteriorize the spleen and pancreas. While gently retracting the pancreas laterally, a 30 G needle was inserted along the length of the pancreas from the tail to the pancreatic head region. Then, 10 μl of cell suspension was injected as the needle was withdrawn to the mid-body of the pancreas. The needle was removed, and the area was inspected for leakage and bleeding. The pancreas and spleen were internalized with forceps and the abdominal muscle layer was closed with interrupted stitches (3-0 silk suture). The overlying skin was closed with a second set of interrupted stitches. Buprenorphine SR-LAB was injected subcutaneously immediately after the surgery for pain relief.
After the surgery, tumor growth and metastatic tumor burden were monitored and assessed weekly for luciferase activity by bioluminescence imaging (BLI) using Lago Imaging System (Spectral Instruments Imaging, Tucson, AZ). Mice were anesthetized using isoflurane for all imaging procedures. Mice were administered intraperitoneally with luciferin (10 mg/kg) and imaged in 10-20 minutes for maximum luciferase signal plateau. Images were analyzed using Aura Imaging software. Once the BLI levels of xenografted tumor reached 5×10^8 photons (around 7-9 weeks post PANC-1 cell injection), the mice were grouped based on their BLI level and compounds (e.g., drugs) of the present disclosure were given by gavage daily to each group for 4 weeks. […] Upon sacrifice after 4 weeks of treatment, primary tumors and mouse organs were harvested, weighed, imaged, and formalin-fixed for (hematoxylin and eosin) H&E and immunohistochemistry staining. Data was statistically analyzed using t-test, or t-test with Bonferroni correction.

Regarding `COc1ccc2c(c1OCc1ccccc1)C[C@@H](C(=O)O)N(C(=O)C(c1ccccc1)c1ccccc1)C2` [EMA401], the Tumor weight by setting is: (all animals) 0.7215 g; (excluding one outlier) 0.6174 (Excluding. For the same compound, the “Tumor weight, mean” value is, setting by setting: (Table 17B (repeated study), control 0.8041) 0.5383 g; (Table 17C (both studies pooled, including the outlier), control 0.8763) 0.6347 g. Further, the “Tumor weight fall versus control” value (100 mg/kg EMA401 for 8 weeks, first study, all animals, did not reach statistical significance) is 24%. Further, where the note is “100 mg/kg EMA401 for 8 weeks, first study, one outlier omitted, p=0.036”, the “Tumor weight decrease versus control” value is listed as 35%. For the same compound, the “Effect on tumor weight” value (EMA401 60 mg/kg, short-term (4 week) low dose study) is reported as “did not reduce tumor weight”. The “Tumor weight lowered versus control” value was 26% (4 week study, not statistically significant) and 33% (after 8 weeks treatment (example 5), significant). The “BLI data, % of control” value is, setting by setting: (EMA (60 mg/kg)) 59%; (EMA (100 mg/kg)) 61%. The “BLI data, mean” value came to 1.782 (EMA (60 mg/kg)) and 1.834 (EMA (100 mg/kg)).
